Test results taken from PubChem BioAssay (NCI).
Several values for one entry are separate records, joined by “and”; a condition that tells them apart may be missing. Identical values can stand only once.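 Compound exposure: 48 hours, 5 concentrations, 96-well plates. Abbreviation: GI50, concentration required for 50% inhibition of growth. At the TGI there is no net growth.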

Legend:
Test in all cases: growth of human tumour cells (NCI), 48 h
HCT-15 colon = test system: HCT-15 colon
U251 CNS = test system: U251 CNS
HL-60(TB) leukemia = test system: HL-60(TB) leukemia
M14 melanoma = test system: M14 melanoma
DU-145 prostate = test system: DU-145 prostate
MOLT-4 leukemia = test system: MOLT-4 leukemia
SW-620 colon = test system: SW-620 colon
SF-295 CNS = test system: SF-295 CNS
LOX IMVI melanoma = test system: LOX IMVI melanoma
MCF7 breast = test system: MCF7 breast

| Structure (SMILES) | GI50 (HCT-15 colon) | TGI (HCT-15 colon) | GI50 (U251 CNS) | TGI (U251 CNS) | GI50 (HL-60(TB) leukemia) | TGI (HL-60(TB) leukemia) | GI50 (M14 melanoma) | TGI (M14 melanoma) | GI50 (DU-145 prostate) | TGI (DU-145 prostate) | GI50 (MOLT-4 leukemia) | TGI (MOLT-4 leukemia) | GI50 (SW-620 colon) | TGI (SW-620 colon) | GI50 (SF-295 CNS) | TGI (SF-295 CNS) | GI50 (LOX IMVI melanoma) | TGI (LOX IMVI melanoma) | GI50 (MCF7 breast) | TGI (MCF7 breast) [µM] |
| --- | --- | --- | --- | --- | --- | --- | --- | --- | --- | --- | --- | --- | --- | --- | --- | --- | --- | --- | --- | --- |
| COc1ccc(S(=O)(=O)NC2=NCCN2C(=S)SN2CCn3c2nsc3=S)cc1OC | 26.2 µM | > 100 µM | 22.3 µM | 53.4 µM | > 100 µM | > 100 µM | 20.4 µM | 48.8 µM | 41 µM | > 100 µM | 27.1 µM | > 100 µM | 18.9 µM | > 100 µM | 20.9 µM | 56.2 µM | 16.8 µM | 37.8 µM | 15.7 µM | 35.7 |
| CCC(C(=O)c1cccs1)C(O)(C(F)(F)F)C(F)(F)F (stereo not given) | – | > 100 µM | – | > 100 µM | – | > 100 µM | – | > 100 µM | – | > 100 µM | – | > 100 µM | – | > 100 µM | – | > 100 µM | – | > 100 µM | – | > 100 |
| COc1ccc2c(O)c(/C=C3\N=Nc4ncccc43)oc2c1C[C@H]1CCNC[C@H]1F | 0.507 µM | 12.2 µM | 0.307 µM | 3.29 µM | 0.246 µM | 0.625 µM | 0.589 µM | 3.64 µM | 0.753 µM | 12 µM | 0.294 µM | 1.62 µM | 0.291 µM | 2.22 µM | 0.343 µM | 11.9 µM | 0.304 µM | 1.78 µM | 0.207 µM | 9.18 |
| c1ccc(CCCNc2nnnc3ccccc23)cc1 | – | > 100 µM | – | > 100 µM | – | > 100 µM | – | > 100 µM | – | > 100 µM | – | > 100 µM | – | > 100 µM | – | > 100 µM | – | > 100 µM | – | > 100 |
| Cc1c2cnccc2c(C)c2c1c1cc(C(=O)O)ccc1n2C | 0.804 µM | 7.82 µM | 0.918 µM | 7.95 µM | 2.09 µM | 6.64 µM | 1.3 µM | 3.74 µM | 1.14 µM | 5.96 µM | 0.53 µM | 3.38 µM | 0.49 µM | 6.7 µM | 1.16 µM | 6.65 µM | 0.579 µM | 4.18 µM | 1.02 µM | 13.6 |
| NC(=O)c1ccc2nc(-c3ccc(C4(N)CCC4)cc3)c(-c3ccccc3)n2n1 | 11.5 µM | 33.1 µM | 6.27 µM | 21.5 µM | 11.5 µM | 30.2 µM | 14.3 µM | 28.6 µM | 14.8 µM | 33.1 µM | 0.741 µM | 19.2 µM | 15 µM | 31.3 µM | 1.26 µM | 15.4 µM | 10.5 µM | 24 µM | 0.158 µM | 17.5 |
| CN(C)CCN1C(=O)c2cccc3c(N)ccc(c23)C1=O | 9.32 µM | > 25 µM | 10.7 µM | > 25 µM | 4.33 µM | 18.9 µM | 11.3 µM | > 25 µM | 13.6 µM | > 25 µM | 6.82 µM | 20.2 µM | 10.1 µM | > 25 µM | 10 µM | > 25 µM | 8.44 µM | > 25 µM | 7.59 µM | > 25 |
| COc1cc(OC)cc(-c2ccc(-c3ccc(C(=N)N)s3)s2)c1 | 0.294 µM | 1.01 µM | 0.404 µM | 1.73 µM | 1.23 µM and 0.174 µM | 2.74 µM and 0.374 µM | 1.1 µM | 2.74 µM | 1.31 µM | 2.77 µM | 0.396 µM and 0.23 µM | 1.12 µM and 0.486 µM | 0.291 µM | 1.02 µM | 1.65 µM | 3.22 µM | 0.221 µM | 0.495 µM | 0.271 µM | 1.22 |
| Nc1ccc(-c2ccc(Nc3cc(S(=O)(=O)O)c(N)c4c3C(=O)c3ccccc3C4=O)cc2)c(S(=O)(=O)O)c1 | – | > 100 µM | – | > 100 µM | – | > 100 µM | – | > 100 µM | – | > 100 µM | – | > 100 µM | – | > 100 µM | – | > 100 µM | – | > 100 µM | – | > 100 |
| CC(N)(Cc1c[nH]c2ccccc12)C(=O)O (stereo not given) | > 2500 µM | > 2500 µM | > 2500 µM | > 2500 µM | > 2500 µM | > 2500 µM | > 2500 µM | > 2500 µM | > 2500 µM | > 2500 µM | > 2500 µM | > 2500 µM | > 2500 µM | > 2500 µM | > 2500 µM | > 2500 µM | > 2500 µM | > 2500 µM | > 2500 µM | > 2500 |
| COc1cc(/C=C/C(=O)NC[C@]2(O)CCC3C4CCc5cc(O)ccc5C4CCC32C)ccc1O (stereo not given in full) | 7.41 µM | > 100 µM | 8.47 µM | > 100 µM | 3.34 µM | 90.7 µM | 4.99 µM | 37.6 µM | 23.9 µM | > 100 µM | 3.9 µM | 32.7 µM | 34.1 µM | > 100 µM | 6.71 µM | > 100 µM | 8.36 µM | > 100 µM | 13.4 µM | > 100 |
| COc1ccc2[nH]c3c(C)c4cc[n+](C)cc4c(C)c3c2c1 | – | > 100 µM and 110 µM and > 250 µM | 0.0689 µM and 0.0524 µM | – | 8.31 µM and 9.67 µM | – | 16.1 µM and 12.9 µM and 2.33 µM | 85.3 µM and 29.8 µM | 2.1 µM and 0.44 µM and 0.691 µM | 37.7 µM and 5.13 µM | 653 nM [middle of 4 runs] | – | 0.28 µM | – | 0.107 µM | – | 3.98 µM and 3.32 µM | 37 µM [middle of 4 runs] | 1.51 µM and 0.885 µM | – |
| CN(C)CCNC(=O)c1cccc2cc([N+](=O)[O-])ccc12 | 1.71 µM and 0.196 µM | 11.5 µM and 1.38 µM | 2.19 µM and 0.233 µM | 11.9 µM and 2.79 µM | 0.608 µM and 0.175 µM | 3.02 µM and 0.541 µM | 1.6 µM and 0.441 µM | 3.32 µM and 1.2 µM | – | 17.1 µM | 0.292 µM and 0.0829 µM | 1.25 µM and 0.407 µM | 0.519 µM and 0.18 µM | 17.7 µM and 5.64 µM | 0.989 µM and 0.414 µM | 3.77 µM and 2.66 µM | 0.566 µM and 0.129 µM | – | – | 15.3 |
| O=S(=O)(CC#CCCCOCC#Cc1ccccc1C#CCS(=O)(=O)c1ccccc1)c1ccccc1 | 22.6 µM | 45.6 µM | 20.5 µM | 41 µM | 21.8 µM | 50.1 µM | 25.2 µM | 56.5 µM | 44.5 µM | > 100 µM | 2.61 µM | 5.9 µM | 28.6 µM | > 100 µM | 29.8 µM | 91.3 µM | 8.1 µM | 24.8 µM | 16.3 µM | 35.3 |
| Cc1cc(C(=O)N[C@@H](CCC(=O)O)C(=O)O)sc1CC[C@@H]1CNc2nc(N)[nH]c(=O)c2C1 | 0.042 µM | > 100 µM | 0.0274 µM | > 100 µM | < 0.0124 µM | > 100 µM | < 0.0124 µM | > 100 µM | < 0.0104 µM | > 100 µM | 0.0292 µM | > 100 µM | 0.0101 µM | > 100 µM | 0.0496 µM | > 100 µM | 0.0268 µM | > 100 µM | 0.0102 µM | > 100 |
